Experimental data reported in patent EP0490380B1, “Use of N,N'-bis 3-(ethylamino)propyl -1,7-heptanediamine and a cytotoxic agent” (MERRELL PHARMACEUTICALS INC., priority 1990, dated 1992).
Read-outs that look alike come from different tables or passages of the source. Marks after values point to notes of the source that are not given here.

Experiments:
HeLa cells = assay: Cell viability by colorimetric MTT assay after 96 hour incubation, HeLa cells; assay type: cell-based; settings: for IC50: Homo sapiens, HeLa
Experimental: (§1) In addition, the Fractional Inhibitory Concentration (FIC) for the various treatments was calculated. FIC's are an accepted measurement of synergy [Middleton and Westmacott, J.Antimicrobial Chemother. […] For two interacting drugs, the sum of the FIC's of each of the treatments expresses the extent of the synergistic interaction.
(§2) Where FIC is less than 1, there is synergy between the two treatments, where FIC is 1, there is no synergy (additive effect). The smaller the value for FIC, the greater the synergistic interaction.

[1] = test system: MCA38 (mouse colon adenocarcinoma); assay: Cell viability by colorimetric MTT assay after 96 hour incubation, MCA38 cells; assay type: cell-based; settings: for IC50: Mus musculus, 96 h
Experimental: as §1, §2

L1210 Leukemia = assay: Conjunctive therapy of L1210 leukemia in vivo (survival); settings: BDF1 male mice, 10^5 L1210 cells i.p. day 0, control 7.6±0.5
Experimental: Groups of 5 mice (BDF1 male) were inoculated i.p. with 10^5 L1210 leukemia cells on day 0. Vinblastine was administered at 0.5 mg/kg, i.p., on day 3. The compound N,N'-bis(3-(ethylamino) propyl]-1,7-heptanediamine was administered at 5 mg/kg, every 3 hours, 4 times per day, on days 4 and 5. Control group received no treatment after inoculation. Relative survival time was determined and expressed as % T/C (mean survival time treated/mean survival time control x 100). The results of these studies are presented in Table 1. Table 1

`COc1cccc2c1C(=O)c1c(O)c3c(c(O)c1C2=O)C[C@@](O)(C(=O)CO)C[C@@H]3O[C@H]1C[C@H](N)[C@H](O)[C@H](C)O1` [Adriamycin, adriamycin] was tested, and the IC50 (HeLa cells; 96 h, 28,314 at 0 µg/mL (adriamycin alone), read-out: IC50 Adriamycin) was 8.6 ng/mL, the IC50 (HeLa cells; 96 h, 28,314 at 0.2 µg/mL, read-out: IC50 Adriamycin) was 6.7 ng/mL and the IC50 (HeLa cells; 96 h, 28,314 at 0.39 µg/mL, read-out: IC50 Adriamycin) was 5.8 ng/mL. It also gave an IC50 (HeLa cells; 96 h, 28,314 at 0.78 µg/mL, read-out: IC50 Adriamycin) of 4.8 ng/mL, an IC50 (HeLa cells; 96 h, 28,314 at 1.5625 µg/mL, read-out: IC50 Adriamycin) of 1.5 ng/mL and an IC50 ([1]; MCA 38 cells, 28,314 at 0 µg/mL (adriamycin alone), read-out: IC50 Adriamycin) of 7.9 ng/mL. For the same compound, the IC50 ([1]; MCA 38 cells, 28,314 at 0.39 µg/mL, read-out: IC50 Adriamycin) was 7.5 ng/mL, the IC50 ([1]; MCA 38 cells, 28,314 at 0.78 µg/mL, read-out: IC50 Adriamycin) was 7.3 ng/mL and the IC50 ([1]; MCA 38 cells, 28,314 at 1.563 µg/mL, read-out: IC50 Adriamycin) was 7 ng/mL. For the same compound, the IC50 ([1]; MCA 38 cells, 28,314 at 3.125 µg/mL, read-out: IC50 Adriamycin) was 6.3 ng/mL, the IC50 ([1]; MCA 38 cells, 28,314 at 6.25 µg/mL, read-out: IC50 Adriamycin) was 2.5 ng/mL and the IC50 ([1]; MCA 38 cells, 28,314 at 12.5 µg/mL, read-out: IC50 Adriamycin) was 1.8 ng/mL.

For `Nc1ccn([C@@H]2O[C@H](CO)[C@@H](O)[C@@H]2O)c(=O)n1` [AraC, cytarabine], the IC50 (HeLa cells; 96 h, 28,314 at 0 µg/mL (AraC alone), read-out: IC50 AraC) was 1020 ng/mL, the IC50 (HeLa cells; 96 h, 28,314 at 0.1563 µg/mL, read-out: IC50 AraC) was 630 ng/mL and the IC50 (HeLa cells; 96 h, 28,314 at 0.3125 µg/mL, read-out: IC50 AraC) was 600 ng/mL. It also gave an IC50 (HeLa cells; 96 h, 28,314 at 0.625 µg/mL, read-out: IC50 AraC) of 530 ng/mL, an IC50 (HeLa cells; 96 h, 28,314 at 1.25 µg/mL, read-out: IC50 AraC) of 370 ng/mL and an IC50 (HeLa cells; 96 h, 28,314 at 2.5 µg/mL, read-out: IC50 AraC) of 350 ng/mL. The IC50 (HeLa cells; 96 h, 28,314 at 5 µg/mL, read-out: IC50 AraC) was 220 ng/mL, the IC50 (HeLa cells; 96 h, 28,314 at 10 µg/mL, read-out: IC50 AraC) was 150 ng/mL and the IC50 (HeLa cells; 96 h, 28,314 at 20 µg/mL, read-out: IC50 AraC) was 140 ng/mL. For the same compound, the IC50 (HeLa cells; 96 h, 28,314 at 40 µg/mL, read-out: IC50 AraC) was 140 ng/mL, the IC50 (HeLa cells; 96 h, 28,314 at 80 µg/mL, read-out: IC50 AraC) was 140 ng/mL and the IC50 ([1]; MCA 38 cells, 28,314 at 0 µg/mL (AraC alone), read-out: IC50 AraC) was 660 ng/mL. The IC50 ([1]; MCA 38 cells, 28,314 at 0.1563 µg/mL, read-out: IC50 AraC) was 596 ng/mL, the IC50 ([1]; MCA 38 cells, 28,314 at 0.3125 µg/mL, read-out: IC50 AraC) was 488 ng/mL and the IC50 ([1]; MCA 38 cells, 28,314 at 0.625 µg/mL, read-out: IC50 AraC) was 360 ng/mL. For the same compound, the IC50 ([1]; MCA 38 cells, 28,314 at 1.25 µg/mL, read-out: IC50 AraC) was 230 ng/mL and the IC50 ([1]; MCA 38 cells, 28,314 at 2.5 µg/mL, read-out: IC50 AraC) was 71 ng/mL.

`N.N.[Cl][Pt][Cl]` [Cisplatin] was tested, and the “IC50 Cisplatin” value (HeLa cells; 28,314 at 0 µg/mL (cisplatin alone)) was 0.359 µg/mL, the “IC50 Cisplatin” value (HeLa cells; 28,314 at 0.39 µg/mL) was 0.336 µg/mL and the “IC50 Cisplatin” value (HeLa cells; 28,314 at 0.78 µg/mL) was 0.276 µg/mL. The “IC50 Cisplatin” value (HeLa cells; 28,314 at 1.563 µg/mL) was 0.186 µg/mL, the “IC50 Cisplatin” value (HeLa cells; 28,314 at 3.125 µg/mL) was 0.130 µg/mL and the “IC50 Cisplatin” value (HeLa cells; 28,314 at 6.25 µg/mL) was 0.088 µg/mL. For the same compound, the “IC50 Cisplatin” value (HeLa cells; 28,314 at 12.5 µg/mL) was 0.074* µg/mL, the “IC50 Cisplatin” value (HeLa cells; 28,314 at 25 µg/mL) was 0.068 µg/mL and the “IC50 Cisplatin” value (HeLa cells; 28,314 at 50 µg/mL) was 0.068 µg/mL. The “IC50 Cisplatin” value (HeLa cells; 28,314 at 100 µg/mL) was 0.057 µg/mL, the “IC50 Cisplatin” value ([1]; MCA 38 cells, 28,314 at 0 µg/mL (cisplatin alone)) was 0.847 µg/mL and the “IC50 Cisplatin” value ([1]; MCA 38 cells, 28,314 at 0.2 µg/mL) was 0.58 µg/mL. The “IC50 Cisplatin” value ([1]; MCA 38 cells, 28,314 at 0.39 µg/mL) was 0.387 µg/mL, the “IC50 Cisplatin” value ([1]; MCA 38 cells, 28,314 at 0.78 µg/mL) was 0.376 µg/mL and the “IC50 Cisplatin” value ([1]; MCA 38 cells, 28,314 at 1.56 µg/mL) was 0.276 µg/mL. For the same compound, the “IC50 Cisplatin” value ([1]; MCA 38 cells, 28,314 at 3.125 µg/mL) was 0.177* µg/mL, the “IC50 Cisplatin” value ([1]; MCA 38 cells, 28,314 at 6.25 µg/mL) was 0.165 µg/mL and the “IC50 Cisplatin” value ([1]; MCA 38 cells, 28,314 at 12.5 µg/mL) was 0.053 µg/mL.

For `CCNCCCNCCCCCCCNCCCNCC` [Compound 28,314, N,N'-Bis[3-(ethylamino)propyl]-1,7-heptanediamine], the IC50 (HeLa cells; 96 h, Table 6 (cisplatin series), read-out: IC50 28,314 alone) was about 200000 ng/mL, the IC50 (HeLa cells; 96 h, Table 7 (adriamycin series), read-out: IC50 28,314 alone) was 1590 ng/mL and the IC50 (HeLa cells; 96 h, Table 8 (AraC series), read-out: IC50 28,314 alone) was about 160000 ng/mL. For the same compound, the “Mean Survival Time” value (L1210 Leukemia; 28,314 5 mg/kg every 3 hours, 4 times per day (20 mg/Kg/day), days 4,5) was 12.6 ± 0.9 days, the IC50 ([1]; MCA 38 cells, Table 2 (cisplatin series), read-out: IC50 28,314 alone) was 17700 ng/mL and the IC50 ([1]; MCA 38 cells, Table 3 (adriamycin series), read-out: IC50 28,314 alone) was 25000 ng/mL. It also gave an IC50 ([1]; MCA 38 cells, Table 4 (AraC series), read-out: IC50 28,314 alone) of 3540 ng/mL and an IC50 ([1]; MCA 38 cells, Table 5 (vinblastine series), read-out: IC50 28,314 alone) of 10000 ng/mL.

In the case of `CC[C@]1(O)C[C@@H]2CN(CCc3c([nH]c4ccccc34)[C@@](C(=O)OC)(c3cc4c(cc3OC)N(C)[C@H]3[C@@](O)(C(=O)OC)[C@H](OC(C)=O)[C@]5(CC)C=CCN6CC[C@]43[C@@H]65)C2)C1` [Vinblastine, vinblastine], the IC50 (HeLa cells; 96 h, 28,314 at 0 µg/mL (vinblastine alone), read-out: IC50 Vinblastin) is reported as 1.6 ng/mL, the IC50 (HeLa cells; 96 h, 28,314 at 0.1563 µg/mL, read-out: IC50 Vinblastin) is reported as 1.33 ng/mL and the IC50 (HeLa cells; 96 h, 28,314 at 0.3125 µg/mL, read-out: IC50 Vinblastin) is reported as 1.33 ng/mL. It also gave an IC50 (HeLa cells; 96 h, 28,314 at 0.625 µg/mL, read-out: IC50 Vinblastin) of 1.19 ng/mL, an IC50 (HeLa cells; 96 h, 28,314 at 1.25 µg/mL, read-out: IC50 Vinblastin) of 1.17 ng/mL and an IC50 (HeLa cells; 96 h, 28,314 at 2.5 µg/mL, read-out: IC50 Vinblastin) of 0.63 ng/mL. For the same compound, the IC50 (HeLa cells; 96 h, 28,314 at 5 µg/mL, read-out: IC50 Vinblastin) was 0.24 ng/mL, the IC50 (HeLa cells; 96 h, 28,314 at 10 µg/mL, read-out: IC50 Vinblastin) was 0.11 ng/mL and the IC50 (HeLa cells; 96 h, 28,314 at 20 µg/mL, read-out: IC50 Vinblastin) was 0.09 ng/mL. The “Mean Survival Time” value (L1210 Leukemia; Vinblastine 0.5 mg/kg i.p. day 3) was 10.0 ± 0.7 days, the IC50 ([1]; MCA 38 cells, 28,314 at 0 µg/mL (vinblastine alone), read-out: IC50 Vinblastin) was 59.5 ng/mL and the IC50 ([1]; MCA 38 cells, 28,314 at 0.1563 µg/mL, read-out: IC50 Vinblastin) was 54.8 ng/mL. The IC50 ([1]; MCA 38 cells, 28,314 at 0.3125 µg/mL, read-out: IC50 Vinblastin) was 43 ng/mL, the IC50 ([1]; MCA 38 cells, 28,314 at 0.625 µg/mL, read-out: IC50 Vinblastin) was 33 ng/mL and the IC50 ([1]; MCA 38 cells, 28,314 at 1.25 µg/mL, read-out: IC50 Vinblastin) was 25 ng/mL. It also gave an IC50 ([1]; MCA 38 cells, 28,314 at 2.5 µg/mL, read-out: IC50 Vinblastin) of 15 ng/mL and an IC50 ([1]; MCA 38 cells, 28,314 at 5.0 µg/mL, read-out: IC50 Vinblastin) of 3 ng/mL.
